# According to patent publication US20240239755A1, “SUBSTITUTED PYRIDAZINONES, SALTS OR N-OXIDES THEREOF AND THEIR USE AS HERBICIDALLY ACTIVE SUBSTANCES” (Bayer Aktiengesellschaft, priority 2021, published 2024):
# Key:
# Type in all cases: in vivo
# [1] = system: Abutilon theophrasti (ABUTH); assay: Herbicidal post-emergence action, 1280 g/ha (Table B1); conditions: visual assessment after ca. 3 weeks vs untreated controls
# In short: (§1)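 Foliar application to single-leaf weeds in sandy loam; percent kill judged visually ca. 3 weeks later relative to untreated plants.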
# [2] = system: Amaranthus retroflexus (AMARE); assay: Herbicidal post-emergence action, 1280 g/ha, AMARE; conditions: visual grading vs untreated controls
# In short: (§2)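 Visual rating ~3 weeks after treatment: 0% equals untreated control, 100% means plants died. Treatment was a 1280 g/ha foliar spray (600 L water/ha, 0.5% additive, WP or EC formulation) applied to single-leaf-stage plants grown 2–3 weeks in sandy loam under controlled conditions.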
# Lolium rigidum (LOLRI) [3] = assay: Herbicidal pre-emergence action, 320 g/ha (Table C2); conditions: visual grading after ca. 3 weeks vs untreated controls
# In short: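 Herbicidal effect was graded by eye roughly 3 weeks after treatment, from 0% (as control) to 100% (dead plants). Weed seeds sown in sandy loam were covered and sprayed on the soil surface with WP/EC suspensions or emulsions, 0.5% additive, 600 L water/ha, then kept in a greenhouse.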
# [4] = system: Abutilon theophrasti (ABUTH); assay: Herbicidal post-emergence action, 320 g/ha, ABUTH; conditions: visual grading after ca. 3 weeks
# In short: (§3)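 Visual herbicidal scoring (0% = like control, 100% = plants died) was done about 3 weeks after treatment, with plants kept in the greenhouse. Treatment was a 320 g/ha spray of WP or EC aqueous preparations with 0.5% additive, at a water volume of 600 L/ha. Plants were at the single-leaf stage, 2–3 weeks post-sowing in sandy loam.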
# Kochia scoparia (KCHSC) [5] = assay: Herbicidal post-emergence action, 1280 g/ha (Table B4); conditions: visual assessment after ca. 3 weeks vs untreated controls
# In short: as §1
# Stellaria media (STEME) [6] = assay: Herbicidal pre-emergence action, 320 g/ha, STEME; conditions: visual grading after ca. 3 weeks
# In short: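 Percent herbicidal effect, graded by eye about 3 weeks after treatment relative to untreated pots (0% matching controls, 100% dead plants). Application of 320 g/ha onto soil covering freshly sown seeds, as aqueous suspension or emulsion plus 0.5% additive at 600 L/ha; pots kept in greenhouse.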
# Poa annua (POAAN) = assay: Herbicidal pre-emergence action, 1280 g/ha (Table A7); conditions: visual grading after ca. 3 weeks vs untreated controls
# In short: (§4)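 Percent herbicidal damage relative to untreated plants (0% = as control, 100% = plants dead) was graded visually about 3 weeks after treatment under greenhouse conditions. The pre-emergence application went onto the soil surface over sown seeds, as aqueous WP/EC suspension or emulsion at 600 L/ha plus 0.5% additive.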
# [7] = system: Amaranthus retroflexus (AMARE); assay: Herbicidal post-emergence action, 320 g/ha, AMARE; conditions: visual grading after ca. 3 weeks
# In short: as §3
# [8] = system: Matricaria inodora (MATIN); assay: Herbicidal post-emergence action, 320 g/ha, MATIN; conditions: visual grading after ca. 3 weeks
# In short: as §3
# Veronica persica (VERPE) [9] = assay: Herbicidal post-emergence action, 320 g/ha, VERPE; conditions: visual grading after ca. 3 weeks
# In short: as §3
# Lolium rigidum (LOLRI) [10] = assay: Herbicidal pre-emergence action, 1280 g/ha (Table A5); conditions: visual grading after ca. 3 weeks vs untreated controls
# In short: as §4
# [11] = system: Matricaria inodora (MATIN); assay: Herbicidal post-emergence action, 1280 g/ha (Table B6); conditions: visual assessment after ca. 3 weeks vs untreated controls
# In short: as §1
# Veronica persica (VERPE) [12] = assay: Herbicidal post-emergence action, 1280 g/ha, VERPE; conditions: visual grading vs untreated controls
# In short: as §2
# Stellaria media (STEME) [13] = assay: Herbicidal post-emergence action, 1280 g/ha (Table B9); conditions: visual assessment after ca. 3 weeks vs untreated controls
# In short: as §1
# Stellaria media (STEME) [14] = assay: Herbicidal pre-emergence action, 1280 g/ha (Table A9); conditions: visual grading after ca. 3 weeks vs untreated controls
# In short: as §4
# [15] = system: Matricaria inodora (MATIN); assay: Herbicidal pre-emergence action, 1280 g/ha (Table A6); conditions: visual grading after ca. 3 weeks vs untreated controls
# In short: as §4
# [16] = system: Amaranthus retroflexus (AMARE); assay: Herbicidal pre-emergence action, 1280 g/ha (Table A11); conditions: visual grading after ca. 3 weeks vs untreated controls
# In short: as §4
# [17] = system: Matricaria inodora (MATIN); assay: Herbicidal pre-emergence action, 320 g/ha (Table C3); conditions: visual grading after ca. 3 weeks vs untreated controls
# Excerpt: (§5) Seeds of mono- and dicotyledonous weed plants were sown in plastic pots (double sowings with one species of mono- and one species of dicotyledonous weed plants per pot), in sandy loam, and covered with soil. The compounds according to the invention, formulated in the form of wettable powders (WP) or as emulsifiable concentrates (EC), were applied to the surface of the covering soil as an aqueous suspension or as an emulsion, with the addition of 0.5% of an additive, at an application rate of 600 litres of water per hectare (converted). Following treatment, the pots were placed in a greenhouse and kept under optimum growth conditions for the test plants. The visual grading of the damage to the test plants was carried out after ca. 3 weeks in comparison to untreated controls (herbicidal effect in percent (%): 100% effect=plants have died, 0% effect=as control plants). Tables C1 to C6 below, show the effects of selected compounds of the general formula (I) according to Table 1 on various harmful plants using an application rate corresponding to 320 g/ha obtained by the experimental procedure mentioned above.
# Kochia scoparia (KCHSC) [18] = assay: Herbicidal pre-emergence action, 1280 g/ha (Table A4); conditions: visual grading after ca. 3 weeks vs untreated controls
# In short: as §4
# Lolium rigidum (LOLRI) [19] = assay: Herbicidal post-emergence action, 320 g/ha, LOLRI; conditions: visual grading after ca. 3 weeks
# In short: as §3
# Veronica persica (VERPE) [20] = assay: Herbicidal pre-emergence action, 1280 g/ha (Table A10); conditions: visual grading after ca. 3 weeks vs untreated controls
# Excerpt: as §5, with “A1” for “C1”, “A11” for “C6”, “and” for “using”, “1280” for “320”
# [21] = system: Amaranthus retroflexus (AMARE); assay: Herbicidal pre-emergence action, 320 g/ha, AMARE; conditions: visual grading after ca. 3 weeks
# Excerpt: as §5, with “plants).” for “plants). Tables C1 to C6 below, show the effects of selected compounds of the general formula (I) according to Table 1 on various harmful plants using an application rate corresponding to 320 g/ha obtained by the experimental procedure mentioned above.”
# Tables C1 to C6 below, show the effects of selected compounds of the general formula (I) according to Table 1 on various harmful plants using an application rate corresponding to 320 g/ha obtained by the experimental procedure mentioned above.
# Lolium rigidum (LOLRI) [22] = assay: Herbicidal post-emergence action, 1280 g/ha (Table B5); conditions: visual assessment after ca. 3 weeks vs untreated controls
# In short: as §1
# [23] = system: Echinochloa crus-galli (ECHCG); assay: Herbicidal post-emergence action, 1280 g/ha (Table B3); conditions: visual assessment after ca. 3 weeks vs untreated controls
# Excerpt: (§6) Seeds of mono- and dicotyledonous weed plants were sown in plastic pots (double sowings with one species of mono- and one species of dicotyledonous weed plants per pot), in sandy loam, covered with soil and grown under controlled growth conditions. 2 to 3 weeks after sowing, the test plants were sprayed in the single-leaf stage. The compounds according to the invention, formulated in the form of wettable powders (WP) or as emulsifiable concentrates (EC), were sprayed onto the green plant parts as an aqueous suspension or as an emulsion, with the addition of 0.5% of an additive, at an application rate of 600 litres of water per hectare (converted). The test plants were placed in the greenhouse for ca. 3 weeks under optimum growth conditions, and then the effect of the preparations was assessed visually in comparison with untreated controls (herbicidal effect in percent (%): 100% effect=plants have died, 0% effect=as control plants). Tables B1 to B11 below, show the effects of selected compounds of the general formula (I) according to Table 1 on various harmful plants using an application rate corresponding to 1280 g/ha obtained by the experimental procedure mentioned above.
# Setaria viridis (SETVI) [24] = assay: Herbicidal post-emergence action, 1280 g/ha (Table B8); conditions: visual assessment after ca. 3 weeks vs untreated controls
# Excerpt: as §6
# Stellaria media (STEME) [25] = assay: Herbicidal post-emergence action, 320 g/ha, STEME; conditions: visual grading after ca. 3 weeks
# In short: as §3
# [26] = system: Digitaria sanguinalis (DIGSA); assay: Herbicidal post-emergence action, 1280 g/ha (Table B2); conditions: visual assessment after ca. 3 weeks vs untreated controls
# Excerpt: as §6
# Setaria viridis (SETVI) [27] = assay: Herbicidal pre-emergence action, 1280 g/ha (Table A8); conditions: visual grading after ca. 3 weeks vs untreated controls
# In short: as §4
# [28] = system: Abutilon theophrasti (ABUTH); assay: Herbicidal pre-emergence action, 1280 g/ha (Table A1); conditions: visual grading after ca. 3 weeks vs untreated controls
# In short: as §4
SMILES,herbicidal effect ABUTH [1] [%],herbicidal effect AMARE [2] [%],herbicidal effect LOLRI (Lolium rigidum (LOLRI) [3]) [%],herbicidal effect ABUTH [4] [%],herbicidal effect KCHSC (Kochia scoparia (KCHSC) [5]) [%],herbicidal effect STEME (Stellaria media (STEME) [6]) [%],herbicidal effect AMARE [7] [%],herbicidal effect LOLRI (Lolium rigidum (LOLRI) [10]) [%],herbicidal effect MATIN [11] [%],herbicidal effect VERPE (Veronica persica (VERPE) [12]) [%],herbicidal effect STEME (Stellaria media (STEME) [13]) [%],herbicidal effect STEME (Stellaria media (STEME) [14]) [%],herbicidal effect MATIN [15] [%],herbicidal effect AMARE [16] [%],herbicidal effect MATIN [17] [%],herbicidal effect LOLRI (Lolium rigidum (LOLRI) [22]) [%],herbicidal effect STEME (Stellaria media (STEME) [25]) [%],herbicidal effect DIGSA [26] [%],also measured
Cc1nn(C)c(=O)c(Oc2cc(F)ccc2Br)c1O [Example I-026],100,100,90,90,90,100,90,100,100,90,90,100,100,100,90,,,,herbicidal effect POAAN (Poa annua (POAAN)): 90%; herbicidal effect MATIN [8]: 90%; herbicidal effect VERPE (Veronica persica (VERPE) [9]): 90%; herbicidal effect KCHSC (Kochia scoparia (KCHSC) [18]): 90%
Cc1nn(C)c(=O)c(Oc2ccccc2C#N)c1O [Example I-028],,90,,,,100,,,,,,100,100,,100,,,,herbicidal effect POAAN (Poa annua (POAAN)): 100%
CC(=O)Oc1c(C)nn(C)c(=O)c1Oc1ccccc1C(F)(F)F [Example I-030],100,90,90,90,90,100,90,100,90,90,100,100,100,100,100,90,90,,herbicidal effect LOLRI (Lolium rigidum (LOLRI) [19]): 90%; herbicidal effect VERPE (Veronica persica (VERPE) [20]): 90%; herbicidal effect AMARE [21]: 90%; herbicidal effect ECHCG [23]: 90%; herbicidal effect SETVI (Setaria viridis (SETVI) [24]): 90%; herbicidal effect KCHSC (Kochia scoparia (KCHSC) [18]): 90%
CCOC(=O)Oc1c(C)nn(C)c(=O)c1Oc1ccc(F)cc1C1CC1 [Example I-034],90,100,,90,90,,90,100,90,90,90,,100,90,,90,90,90,herbicidal effect ECHCG [23]: 90%; herbicidal effect SETVI (Setaria viridis (SETVI) [24]): 90%
Cc1nn(C)c(=O)c(Oc2ccc(F)c(Cl)n2)c1O [Example I-052],,,,,,,,,,,,,,,,,,90,
Cc1nn(C)c(=O)c(Oc2ccc(Br)cc2)c1O [Example I-068],,,,,90,,,,,90,,,,90,,,,90,herbicidal effect SETVI (Setaria viridis (SETVI) [27]): 90%
CCOC(=O)Oc1c(C)nn(C)c(=O)c1Oc1cc(Cl)ccc1Cl [Example I-086],90,100,90,,,,90,100,90,,100,100,100,90,,100,90,,herbicidal effect LOLRI (Lolium rigidum (LOLRI) [19]): 90%; herbicidal effect VERPE (Veronica persica (VERPE) [20]): 90%
Cc1nn(C)c(=O)c(Oc2cc(Cl)ccc2Br)c1O [Example I-091],,,100,,,100,,100,,,90,100,100,100,90,90,90,,herbicidal effect AMARE [21]: 90%; herbicidal effect ABUTH [28]: 90%
